According to US20230066011A1, “PYRROLOPYRIMIDINE DERIVATIVE, AND PHARMACEUTICAL COMPOSITION FOR PREVENTING OR TREATING PROTEIN KINASE-RELATED DISEASE COMPRISING SAME AS ACTIVE INGREDIENT” (VORONOI CO., LTD., priority 2019, published 2023):

How the values were obtained:
LRRK2 (G2019S) = LRRK2 (G2019S) (Homo sapiens, UniProt Q5S007, G2019S); test: LRRK2 G2019S enzyme inhibition, ADP-Glo kinase assay; assay type: biochemical; design: purchased SignalChem L10-12GG; details: ATP 25 μM
Outline: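 IC50 derived from luminescent ADP-Glo readout against untreated solvent control, twelve final compound concentrations from 50 μM downward. Reaction: recombinant human LRRK2 G2019S enzyme, 25 μM ATP, substrate, pH 7.4 Tris buffer with MgCl2/BSA/DTT, 25° C. for 2 hours.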

human GST-CLK1 = biological target: T1, human GST-CLK1 (Homo sapiens, UniProt P49759); test: GST-CLK1 enzyme inhibition, ADP-Glo kinase assay; assay type: biochemical; details: ATP 10 μM, GST-CLK1 129-end
T1 construct: purified human GST-CLK1 (129-end, SignalChem) enzyme; purchased SignalChem
T1 sequence (P49759 129-484 limits assumed): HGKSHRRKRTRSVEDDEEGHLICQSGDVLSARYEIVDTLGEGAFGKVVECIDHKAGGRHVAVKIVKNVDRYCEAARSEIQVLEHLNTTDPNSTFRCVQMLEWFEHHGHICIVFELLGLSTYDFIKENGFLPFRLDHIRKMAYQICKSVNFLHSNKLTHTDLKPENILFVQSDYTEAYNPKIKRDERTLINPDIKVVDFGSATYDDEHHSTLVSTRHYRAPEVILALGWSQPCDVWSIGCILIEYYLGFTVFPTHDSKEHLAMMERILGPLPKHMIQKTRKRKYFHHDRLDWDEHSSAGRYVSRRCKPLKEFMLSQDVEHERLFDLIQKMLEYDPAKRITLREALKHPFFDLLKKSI
Outline: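 ADP-Glo luminescence read-out, relative to untreated solvent control, gave IC50 (nM) from triplicate data sets. Reactions ran an hour at 25° C with 3 ng GST-CLK1 (residues 129-end), 10 μM ATP and specific substrate in Tris-HCl pH 7.4 buffer with MgCl2, BSA and DTT.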

human GST-DYRK1A = biological target: T2, human GST-DYRK1A (Homo sapiens, UniProt Q13627); test: GST-DYRK1A enzyme inhibition, ADP-Glo kinase assay; assay type: biochemical; details: ATP 10 μM, GST-DYRK1A full length, read-out: DYRK1 IC50
T2 construct: purified human GST-DYRK1A (full length, Thermo Scientifics) enzyme; purchased Thermo Scientifics
Outline: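 Full-length enzyme (10 ng) was incubated with 10 μM ATP and a specific substrate for 1 h at 25 °C in 40 mM Tris-HCl pH 7.4, 20 mM MgCl2, 0.5 mg/mL BSA, 50 μM DTT. Luminescence was read against a solvent control, and IC50 values were derived from 3 data sets.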

MDA-MB-231 cell line = test: Inhibition of proliferation of MDA-MB-231 cancer cells (Cell Titer-Glo); assay type: cell-based; details: Homo sapiens, 72 hours
Outline: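 A 72-hour treatment with compound (eleven final concentrations, 3-fold apart, top 10 μM) of cells seeded at 2,000 per well preceded a Cell Titer-Glo luminescence read, from which GI50 was obtained.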

SHP-77 = test: Inhibition of proliferation of SHP-77 cancer cells (Cell Titer-Glo); assay type: cell-based; details: Homo sapiens, SHP77, 72 hours
Experimental: To evaluate an inhibitory effect on the proliferation of cancer cells, each of an MDA-MB-231 cell line (Korean Cell Line Bank #30026) and an MDA-MB-468 cell line as triple-negative breast cancer cell lines, and SHP-77 (ATCC #CRL-2195) as a small-cell lung cancer cell line was cultured in DMEM (HyClone #SH30243) or an RPMI medium (HyClone #SH3027.01) to analyze a cell growth rate. More specifically, a cell line was plated on a 96-well flat bottom plate (Corning #3903) at a density of 2,000 cells/100 μL per well, and then treated with 11 concentrations of the Example compound, a solution of which was diluted 3-fold so that a final concentration of the compound was 10.000000, 3.333333, 1.111111, 0.370370, 0.123457, 0.041152, 0.013717, 0.004572, 0.001524, 0.000508, and 0.000169 μM. After 72 hours, each of the culture media was treated with 100 μL of Cell Titer-Glo (Promega G7573), and then cultured at room temperature for 10 minutes. Then, a degree of luminescence was measured using a microplate reader. A GI50 value was calculated from the measured degree of luminescence using Prism (Version 8.2 GraphPad) software.

LRRK2 = LRRK2 (Homo sapiens, UniProt Q5S007); test: LRRK2 enzyme inhibition, ADP-Glo kinase assay; assay type: biochemical; design: purchased Invitrogen PR8604B; details: ATP 10 μM
LRRK2, sequence (Q5S007 970-2527 limits assumed): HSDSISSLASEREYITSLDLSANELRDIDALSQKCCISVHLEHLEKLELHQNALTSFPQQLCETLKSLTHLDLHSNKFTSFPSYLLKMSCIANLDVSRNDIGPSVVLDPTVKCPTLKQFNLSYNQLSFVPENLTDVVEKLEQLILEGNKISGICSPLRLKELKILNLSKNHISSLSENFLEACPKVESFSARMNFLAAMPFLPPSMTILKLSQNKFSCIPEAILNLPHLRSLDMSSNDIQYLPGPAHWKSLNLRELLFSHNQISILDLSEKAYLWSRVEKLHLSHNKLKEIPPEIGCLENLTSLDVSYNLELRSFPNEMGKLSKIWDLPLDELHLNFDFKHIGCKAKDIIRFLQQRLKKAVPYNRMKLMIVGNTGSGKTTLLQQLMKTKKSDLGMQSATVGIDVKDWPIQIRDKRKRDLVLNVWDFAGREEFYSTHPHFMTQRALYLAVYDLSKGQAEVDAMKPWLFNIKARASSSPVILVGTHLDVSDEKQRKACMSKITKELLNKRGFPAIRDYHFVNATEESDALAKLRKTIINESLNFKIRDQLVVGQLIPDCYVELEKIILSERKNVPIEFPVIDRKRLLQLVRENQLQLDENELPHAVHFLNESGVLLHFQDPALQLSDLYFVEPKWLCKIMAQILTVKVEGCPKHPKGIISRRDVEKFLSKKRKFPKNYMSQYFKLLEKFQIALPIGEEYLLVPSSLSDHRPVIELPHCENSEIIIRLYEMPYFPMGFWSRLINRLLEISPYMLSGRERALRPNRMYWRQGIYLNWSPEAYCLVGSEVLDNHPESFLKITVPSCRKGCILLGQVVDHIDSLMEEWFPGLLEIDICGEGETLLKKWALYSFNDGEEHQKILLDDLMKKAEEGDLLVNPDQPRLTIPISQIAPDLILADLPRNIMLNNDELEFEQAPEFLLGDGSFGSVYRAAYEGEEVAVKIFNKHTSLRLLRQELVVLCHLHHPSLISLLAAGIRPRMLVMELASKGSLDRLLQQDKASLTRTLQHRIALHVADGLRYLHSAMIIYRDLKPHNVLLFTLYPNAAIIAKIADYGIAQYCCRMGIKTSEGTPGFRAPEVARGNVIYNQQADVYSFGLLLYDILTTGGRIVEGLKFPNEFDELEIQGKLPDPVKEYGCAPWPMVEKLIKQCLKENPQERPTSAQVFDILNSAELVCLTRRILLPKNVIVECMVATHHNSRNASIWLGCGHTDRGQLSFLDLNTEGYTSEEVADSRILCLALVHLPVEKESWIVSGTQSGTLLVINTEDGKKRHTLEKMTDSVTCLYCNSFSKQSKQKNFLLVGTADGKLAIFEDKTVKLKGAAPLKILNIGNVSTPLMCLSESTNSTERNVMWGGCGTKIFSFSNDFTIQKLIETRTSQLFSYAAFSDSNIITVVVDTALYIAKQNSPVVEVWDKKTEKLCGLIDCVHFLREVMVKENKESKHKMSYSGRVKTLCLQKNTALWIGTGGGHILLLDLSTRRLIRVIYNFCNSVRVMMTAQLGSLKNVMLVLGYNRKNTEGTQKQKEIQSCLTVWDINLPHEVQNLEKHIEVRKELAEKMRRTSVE
Outline: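 ADP-Glo luminescent read-out of ADP formed by purified human LRRK2 enzyme (25 ng), 10 μM ATP, 0.2 μg substrate, 25° C for 2 h, Tris-HCl pH 7.4 buffer with MgCl2, BSA, DTT. Inhibition versus untreated solvent control over twelve final concentrations (50 μM downward) gives IC50.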

LRRK2 (G2019S), sequence (Q5S007 970-2527 G2019S limits assumed): as the sequence (Q5S007 970-2527 limits assumed) above, with G1050S counted along it

Structure (SMILES)	IC50 (LRRK2 (G2019S))	IC50 (human GST-CLK1)	IC50 (human GST-DYRK1A)	GI50 (MDA-MB-231 cell line)	GI50 (SHP-77)	IC50 (LRRK2)
COc1cc(S(=O)(=O)N2CCOCC2)ccc1Nc1nc(NC2CCCC2)c2c(C#N)c[nH]c2n1 [Example 72, 4-(cyclopentylamino)-2-((2-methoxy-4-(morpholinosulfonyl)phenyl)amino)-7H-pyrrolo[2,3-d]pyrimidine-5-carbonitrile]	301 to 1000 nM	301 to 1000 nM	301 to 1000 nM	< 50 nM	< 50 nM	301 to 1000 nM
COc1cc(S(=O)(=O)N2CCOCC2)ccc1Nc1nc(NCC2CC2)c2c(C#N)c[nH]c2n1 [Example 77, 4-((cyclopropylmethyl)amino)-2-((2-methoxy-4-(morpholinosulfonyl)phenyl)amino)-7H-pyrrolo[2,3-d]pyrimidine-5-carbonitrile]	< 100 nM	301 to 1000 nM	301 to 1000 nM	< 50 nM	< 50 nM	< 100 nM
CCCCNc1nc(Nc2ccc(S(=O)(=O)N3CCC(N4CCOCC4)CC3)cc2OC)nc2[nH]cc(C#N)c12 [Example 97, 4-(butylamino)-2-((2-methoxy-4-((4-morpholinopiperidin-1-yl)sulfonyl)phenyl)amino)-7H-pyrrolo[2,3-d]pyrimidine-5-carbonitrile]	< 100 nM	301 to 1000 nM	301 to 1000 nM	< 50 nM	< 50 nM	< 100 nM
CNc1nc(Nc2ccc(S(=O)(=O)N3CCOCC3)cc2OC)nc2[nH]cc(C(F)(F)F)c12 [Example 160, N^2-(2-methoxy-4-(morpholinosulfonyl)phenyl)-N^4-methyl-5-(trifluoromethyl)-7H-pyrrolo[2,3-d]pyrimidine-2,4-diamine]	301 to 1000 nM	301 to 1000 nM	301 to 1000 nM	301 to 1000 nM	51 to 100 nM	< 100 nM
COc1cc(S(=O)(=O)N2CCOCC2)ccc1Nc1nc(NC(C)C)c2c(C(F)(F)F)c[nH]c2n1 [Example 164, N^4-isopropyl-N^2-(2-methoxy-4-(morpholinosulfonyl)phenyl)-5-(trifluoromethyl)-7H-pyrrolo[2,3-d]pyrimidine-2,4-diamine]	301 to 1000 nM	301 to 1000 nM	301 to 1000 nM	301 to 1000 nM	51 to 100 nM	< 100 nM
COc1cc(S(=O)(=O)N2CCC(N3CCOCC3)CC2)ccc1Nc1nc(NC(C)C)c2c(C(F)(F)F)c[nH]c2n1 [Example 165, N^4-isopropyl-N^2-(2-methoxy-4-((4-morpholinopiperidin-1-yl)sulfonyl)phenyl)-5-(trifluoromethyl)-7H-pyrrolo[2,3-d]pyrimidine-2,4-diamine]	101 to 300 nM	301 to 1000 nM	301 to 1000 nM	< 50 nM	51 to 100 nM	< 100 nM
COc1cc(S(=O)(=O)N2CCOCC2)ccc1Nc1nc(NC2CCCC2)c2c(C(F)(F)F)c[nH]c2n1 [Example 186, N^4-cyclopentyl-N^2-(2-methoxy-4-(morpholinosulfonyl)phenyl)-5-(trifluoromethyl)-7H-pyrrolo[2,3-d]pyrimidine-2,4-diamine]	–	301 to 1000 nM	301 to 1000 nM	301 to 1000 nM	301 to 1000 nM	101 to 300 nM
COc1cc(S(=O)(=O)N2CCC(N3CCOCC3)CC2)ccc1Nc1nc(NC2CCCC2)c2c(C(F)(F)F)c[nH]c2n1 [Example 187, N^4-cyclopentyl-N^2-(2-methoxy-4-((4-morpholinopiperidin-1-yl)sulfonyl)phenyl)-5-(trifluoromethyl)-7H-pyrrolo[2,3-d]pyrimidine-2,4-diamine]	–	301 to 1000 nM	301 to 1000 nM	301 to 1000 nM	301 to 1000 nM	< 100 nM

Further lines, results first:

IC50 (LRRK2 (G2019S))	IC50 (human GST-CLK1)	IC50 (human GST-DYRK1A)	GI50 (MDA-MB-231 cell line)	GI50 (SHP-77)	IC50 (LRRK2)	Structure (SMILES)
< 100 nM	301 to 1000 nM	301 to 1000 nM	51 to 100 nM	51 to 100 nM	< 100 nM	CNc1nc(Nc2ccc(S(=O)(=O)N3CCOCC3)cc2OC)nc2[nH]cc(C#N)c12 [Example 62, 2-((2-methoxy-4-(morpholinosulfonyl)phenyl)amino)-4-(methylamino)-7H-pyrrolo[2,3-d]pyrimidine-5-carbonitrile]
< 100 nM	301 to 1000 nM	301 to 1000 nM	301 to 1000 nM	301 to 1000 nM	< 100 nM	CCNc1nc(Nc2ccc(S(=O)(=O)N3CCOCC3)cc2OC)nc2[nH]cc(C#N)c12 [Example 63, 4-(ethylamino)-2-((2-methoxy-4-(morpholinosulfonyl)phenyl)amino)-7H-pyrrolo[2,3-d]pyrimidine-5-carbonitrile]
< 100 nM	301 to 1000 nM	301 to 1000 nM	< 50 nM	< 50 nM	< 100 nM	CCCNc1nc(Nc2ccc(S(=O)(=O)N3CCOCC3)cc2OC)nc2[nH]cc(C#N)c12 [Example 64, 2-((2-methoxy-4-(morpholinosulfonyl)phenyl)amino)-4-(propylamino)-7H-pyrrolo[2,3-d]pyrimidine-5-carbonitrile]
< 100 nM	301 to 1000 nM	301 to 1000 nM	301 to 1000 nM	301 to 1000 nM	< 100 nM	COCCNc1nc(Nc2ccc(S(=O)(=O)N3CCOCC3)cc2OC)nc2[nH]cc(C#N)c12 [Example 69, 2-((2-methoxy-4-(morpholinosulfonyl)phenyl)amino)-4-((2-methoxyethyl)amino)-7H-pyrrolo[2,3-d]pyrimidine-5-carbonitrile]
< 100 nM	301 to 1000 nM	301 to 1000 nM	301 to 1000 nM	301 to 1000 nM	< 100 nM	COc1cc(S(=O)(=O)N2CCOCC2)ccc1Nc1nc(NC2CC2)c2c(C#N)c[nH]c2n1 [Example 70, 4-(cyclopropylamino)-2-((2-methoxy-4-(morpholinosulfonyl)phenyl)amino)-7H-pyrrolo[2,3-d]pyrimidine-5-carbonitrile]
< 100 nM	301 to 1000 nM	301 to 1000 nM	101 to 300 nM	51 to 100 nM	< 100 nM	COc1cc(S(=O)(=O)N2CCOCC2)ccc1Nc1nc(NC2CCC2)c2c(C#N)c[nH]c2n1 [Example 71, 4-(cyclobutylamino)-2-((2-methoxy-4-(morpholinosulfonyl)phenyl)amino)-7H-pyrrolo[2,3-d]pyrimidine-5-carbonitrile]
< 100 nM	101 to 300 nM	301 to 1000 nM	< 50 nM	51 to 100 nM	< 100 nM	COc1cc(S(=O)(=O)N2CCC(N3CCOCC3)CC2)ccc1Nc1nc(NC2CCC2)c2c(C#N)c[nH]c2n1 [Example 89, 4-(cyclobutylamino)-2-((2-methoxy-4-((4-morpholinopiperidin-1-yl)sulfonyl)phenyl)amino)-7H-pyrrolo[2,3-d]pyrimidine-5-carbonitrile]
–	101 to 300 nM	301 to 1000 nM	< 50 nM	< 50 nM	< 100 nM	COCC(C)(C)Nc1nc(Nc2ccc(S(=O)(=O)N3CCC(N4CCOCC4)CC3)cc2OC)nc2[nH]cc(C#N)c12 [Example 93, 4-((1-methoxy-2-methylpropan-2-yl)amino)-2-((2-methoxy-4-((4-morpholinopiperidin-1-yl)sulfonyl)phenyl)amino)-7H-pyrrolo[2,3-d]pyrimidine-5-carbonitrile]
